Values after ≈ are worked out from the molar mass of the structure shown. Some results are limits rather than exact numbers.

Data set [1] deals with Pseudomonas aeruginosa. Description: Antibacterial activity against Pseudomonas aeruginosa MTCC 2488 after overnight incubation by broth microdilution method. It counts as functional. Background: In broth dilution the organism is exposed to a series of concentrations in liquid medium.
Data set [2] in a line: Selectivity index, ratio of CC50 for human MT4 cells to IC50 for HIV2 ROD. It counts as functional.
Data set [3] is described as follows: Selectivity index, ratio of CC50 for human MT4 cells to IC50 for HIV1 3B. It counts as functional.
The nature of data set [4]: Cytotoxicity against Homo sapiens (human) MT4 cells after 5 days by MTT assay. The data set is classed as cell-based. On the technique in general: Tetrazolium assays rely on reduction of a dye to a coloured formazan, in cell work by metabolically active cells.
Data set [5] deals with Human immunodeficiency virus 2. Description: Antiviral activity against Human immunodeficiency virus type 2 (ISOLATE ROD) infected MT4 cells assessed as inhibition of virus-induced cytopathogenicity after 5 days by MTT assay. The following applies: Human immunodeficiency virus 2, ISOLATE ROD, MT4, 120 h. It counts as functional, organism-based. On the technique in general: Protection from cytopathic effect is a common read-out in antiviral testing.

Data set [6] deals with Human immunodeficiency virus 1. Description: Antiviral activity against Human immunodeficiency virus 1 IIIB infected MT4 cells assessed as inhibition of virus-induced cytopathogenicity after 5 days by MTT assay. It counts as functional, organism-based. The conditions noted are these: MT4, 120 h.
For data set [7], the system named is Mycobacterium tuberculosis. Nature of the data set: Growth inhibition of Mycobacterium tuberculosis H37Rv at MIC after 28 days by Lowenstein-Jensen agar method. The data set is classed as functional.
Data set [8] has as its system Mycobacterium tuberculosis. Nature of the data set: Antitubercular activity against Mycobacterium tuberculosis H37Rv after 28 days by Lowenstein-Jensen agar method. It counts as functional. The following applies: 672 h.
In data set [9] the test system is Aspergillus clavatus. Nature of the data set: Antifungal activity against Aspergillus clavatus MTCC 323 after overnight incubation by broth microdilution method. The data set is classed as functional.
Data set [10] concerns Aspergillus niger. Nature of the data set: Antifungal activity against Aspergillus niger MTCC 282 after overnight incubation by broth microdilution method. The data set is classed as functional.
The test system of data set [11] is Candida albicans. Nature of the data set: Antifungal activity against Candida albicans MTCC 227 after overnight incubation by broth microdilution method. The data set is classed as functional.
Data set [12] deals with Escherichia coli. Description: Antibacterial activity against Escherichia coli MTCC 442 after overnight incubation by broth microdilution method. It counts as functional.
The subject of data set [13] is Streptococcus pyogenes. Description: Antibacterial activity against Streptococcus pyogenes MTCC 443 after overnight incubation by broth microdilution method. The data set is classed as functional.
For data set [14], the system named is Staphylococcus aureus. Description: Antibacterial activity against Staphylococcus aureus MTCC 96 after overnight incubation by broth microdilution method. The data set is classed as functional.

As to `O=[N+]([O-])c1ccc2nc(Nn3c(-c4ccc(Cl)cc4)nnc3-c3cccnc3)sc2c1`, the MIC99 in data set [1] was 125 µg/mL (≈ 278 µM); in [9], more than 1000 µg/mL; in data set [10], 500 µg/mL (≈ 1110 µM); in data set [11] it was 500 µg/mL (≈ 1110 µM); in data set [12], 250 µg/mL (≈ 556 µM); in data set [13], 100 µg/mL (≈ 222 µM). For the same molecule, the MIC99 in data set [14] was determined as 125 µg/mL (≈ 278 µM). Moreover, the “Ratio CC50/IC50” value in data set [2] and in data set [3] was less than 1 throughout. In [4], this molecule came in with a CC50 at 120 h of 62.1 µg/mL (≈ 138 µM). Further, the 50% inhibitory concentration (IC50) in data set [5] and in data set [6] was more than 62.1 µg/mL throughout. Besides, the “growth inhibition (GI)” value in data set [7] is 98%. Further, the MIC in [8] turned out to be 500 µg/mL (≈ 1110 µM).
As to `Cc1cccc2sc(Nn3c(-c4ccc(Cl)cc4)nnc3-c3cccnc3)nc12`, the MIC99 was 250 µg/mL (≈ 597 µM) in data set [1]; 500 µg/mL (≈ 1190 µM) in [9]; 500 µg/mL (≈ 1190 µM) in [10]; 200 µg/mL (≈ 477 µM) in [11]; 500 µg/mL (≈ 1190 µM) in [12]; 1000 µg/mL (≈ 2390 µM) in data set [13]. This molecule also came in with an MIC99 in data set [14] of 100 µg/mL (≈ 239 µM). Besides, the “Ratio CC50/IC50” value in [2] and in [3] was less than 1 in each case. For the same molecule, the midpoint of cytotoxicity in data set [4], the CC50 at 120 h, lay at 36.5 µg/mL (≈ 87 µM). Also, the 50% inhibitory concentration (IC50) in data set [5] and in data set [6] was more than 36.4 µg/mL in each case. Also, the “growth inhibition (GI)” value in data set [7] is 95%. This molecule had an MIC in [8] of 50 µg/mL (≈ 119 µM).

One may read the MIC99 as the lowest concentration that inhibits either 99% of growth or 99% of the strains tested, depending on the study. A low value points to greater potency. The term CC50 denotes the concentration at which the toxic effect on the cells reaches its halfway point. A higher CC50 goes with lower toxicity to the cells. The term IC50 denotes the concentration needed to halve the response being measured. By MIC is commonly meant the lowest concentration found to suppress growth. A higher MIC goes with a less susceptible organism.

(Values after ChEMBL document CHEMBL3046062, “Anti-HIV, antimycobacterial and antimicrobial studies of newly synthesized 1,2,4-triazole clubbed benzothiazoles” (Med Chem Res, 2013).)
